Data reported in publication PMC7377239, “Cardiovascular Effects of Polychlorinated Biphenyls and Their Major Metabolites” (Environmental Health Perspectives, 2020).
Read-outs that look alike come from different tables or passages of the source.

Tests used:
[1] = system: iCell cardiomyocytes (human iPSC-derived cardiomyocytes); experiment: High-content imaging of cytotoxicity and mitochondrial integrity in iPSC-CMs; assay type: cell-based; conditions: Homo sapiens, Cardiomyocyte, cardiomyocytes (cm)
How it was run: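 Cardiomyocytes grown on gelatinized 384-well plates received fresh medium on the experiment day and were then exposed to chemicals at 0.01–100μM. Nuclei and mitochondria were labeled with Hoechst 33342 and MitoTracker™ Orange, then fixed, and imaged on an ImageXpress® Micro Confocal system. Four-parameter logistic concentration–response fits in R, with a one-standard-deviation vehicle cutoff, gave point-of-departure values.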

HUVECs = experiment: High-content imaging cytotoxicity in HUVECs, 24 h; assay type: cell-based, human; conditions: Homo sapiens, HUVEC, 24 h, HUVEC, 24 hr
How it was run: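 Point-of-departure values come from four-parameter logistic fits of vehicle-normalized (0.5% DMSO) imaging readouts, cutoff one SD of vehicle means, 100μM where no concentration–response. Cells: HUVEC monolayers, passages 1–5, treated 24 h at 37°C, 5% CO2, then Hoechst 33342/MitoTracker Orange/calcein AM stained, imaged at 10×.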

## Clc1ccc(-c2ccccc2)cc1 [PCB 3, 4-chlorobiphenyl]
[1]; 1.5 h, cam, 90 min, read-out: POD cm.cam.90min
  minimal effective concentration: 24.9 µM
[1]; 1.5 h, mii, 90 min, read-out: POD cm.mii.90min
  minimal effective concentration: 6.86 µM
[1]; 1.5 h, mito, 90 min, read-out: POD cm.mito.90min
  minimal effective concentration: 21.2 µM
[1]; 1.5 h, tc, 90 min, read-out: POD cm.tc.90min
  minimal effective concentration: 20 µM
[1]; 24 h, cam, 24 hrs, read-out: POD cm.cam.24hrs
  minimal effective concentration: 7.4 µM
[1]; 24 h, mii, 24 hrs, read-out: POD cm.mii.24hrs
  minimal effective concentration: 10.9 µM
[1]; 24 h, mito, 24 hrs, read-out: POD cm.mito.24hrs
  minimal effective concentration: 6.67 µM
[1]; 24 h, tc, 24 hrs, read-out: POD cm.tc.24hrs
  minimal effective concentration: 6.97 µM
HUVECs; cyto, read-out: POD huvec.cyto.24hr
  minimal effective concentration: 100 µM
HUVECs; mito, read-out: POD huvec.mito.24hr
  minimal effective concentration: 100 µM
HUVECs; mitoint, read-out: POD huvec.mitoint.24hr
  minimal effective concentration: 100 µM
HUVECs; nma, read-out: POD huvec.nma.24hr
  minimal effective concentration: 100 µM
HUVECs; tc, read-out: POD huvec.tc.24hr
  minimal effective concentration: 100 µM
